Where two headings read alike, the source gives them in different places.
Columns and labels:
[1] = Oral bioavailability in mice, Method B (plasma and brain PK); format: in vivo, C57BL/6 mice; details: Method B; for half-life / Cmax / AUC(0-inf): male, C57BL/6; for F: 1 mg/kg
Procedure: Animals. Male C57BL/6 mice were used in these studies. Animals were randomly assigned to treatment groups and were fasted for 4 h before dosing.
Drugs. Test compounds were dissolved in a vehicle consisting of normal saline (for compounds used as the HCl salt) or normal saline slightly acidified with aq. HCl (for freebase compounds). They were then administered intravenously (iv) or orally (po) at a dose of 1 or 10 mg/kg (calculated based on freebase), as indicated, and at a volume of 5 mL/kg body weight. Compounds were tested as the racemates or pure enantiomers, as indicated.
(§1) Sample Collection and Bioanalysis. Blood samples (approximately 60 μL) were collected under light isoflurane anesthesia (Surgivet®) from the retro orbital plexus at 0.08, 0.25, 0.5, 1, 2, 4, 8, and 24 h (4 animals per time point). Immediately after blood collection, plasma was harvested by centrifugation at 4,000 rpm for 10 min at 4° C. and samples were stored at −70±10° C. until bioanalysis. Following blood collection, animals were immediately sacrificed, the abdominal vena-cava was cut open, and the whole body was perfused from the heart using 10 mL of normal saline, and brain samples were collected from all animals. After isolation, brain samples were rinsed three times in ice-cold normal saline (for 5-10 seconds/rinse using ˜5-10 mL, normal saline in disposable petri dish for each rinse) and dried on blotting paper. Brain samples were homogenized using ice-cold phosphate-buffered saline (pH 7.4). Total homogenate volume was three times the tissue weight. All homogenates were stored at −70±10° C. until bioanalysis. For bioanalysis, 25 μL aliquots of plasma/brain study samples or spiked plasma/brain calibration standards were added to individual pre-labeled micro-centrifuge tubes followed by 100 μL of an internal standard solution (glipizide, 500 ng/mL in acetonitrile) except for blanks, where 100 μL of acetonitrile was added. Samples were vortexed for 5 minutes and then centrifuged for 10 minutes at 4,000 rpm at 4° C. Following centrifugation, 100 μL of each clear supernatant was transferred to a 96 well plate and analyzed with a fit-for-purpose LC-MS/MS method, with authentic samples of each analyte used for calibration and identification.
(§2) Data Analysis. Pharmacokinetic parameters were estimated using the non-compartmental analysis tool of Phoenix® WinNonlin software (Ver 8.0).

[2] = Metabolic stability in cynomolgus monkey liver microsomes (CLM); format: in vitro ADME, cynomolgus monkeys; details: male, cynomolgus monkey, pooled cynomolgus monkey liver microsomes, pH 7.4, 1 μM compound, 0.50 mg protein/mL, NADPH
Procedure: CLM Stability. Pooled CLM from male cynomolgus monkeys (Corning 452413) were used. Microsomal incubations were carried out in multi-well plates. Liver microsomal incubation medium consisted of PBS (100 mM, pH 7.4), MgCl2 (1 mM), and NADPH (1 mM), with 0.50 mg of liver microsomal protein per mL. Control incubations were performed by replacing the NADPH-cofactor system with PBS. Test compounds (1 μM, final solvent concentration 1.0%) were incubated with microsomes at 37° C. with constant shaking. Six time points over 60 minutes were analyzed, with 60 μL aliquots of the reaction mixture being drawn at each time point. The reaction aliquots were stopped by adding 180 μL of cold (4° C.) acetonitrile containing 200 ng/mL tolbutamide and 200 ng/mL labetalol as internal standards (IS), followed by shaking for 10 minutes, and then protein sedimentation by centrifugation at 4,000 rpm for 20 minutes at 4° C. Supernatant samples (80 μL) were diluted with water (240 μL) and analyzed for parent compound remaining using a fit-for-purpose liquid chromatography-tandem mass spectrometry (LC-MS/MS) method.
Data Analysis. The elimination constant (kel), half-life (t1/2) and intrinsic clearance (Clint) were determined in a plot of […] versus time, using linear regression analysis.

[3] = Comparative metabolism/PK of 2R and deuterated 7R in rats after oral administration; format: in vivo, Sprague Dawley rats; details: for concentration at 0.083 h / concentration at 0.25 h / concentration at 0.5 h / concentration at 1 h / concentration at 2 h / concentration at 4 h: oral
Procedure: Animals. Male Sprague Dawley rats were used in these studies. Animals were randomly assigned to treatment groups and were fasted for 4 h before dosing.
Drugs. Test compounds 2R and 7R were dissolved in a vehicle consisting of normal saline. They were then administered orally (po) at a dose of 10 mg/kg (calculated based on freebase), and at a volume of 5 mL/kg body weight.
as §1, with “mL” for “mL,”, “7.4)” for “7.4).”, “identification. Concentrations of parent compound (2R or 7R) and metabolite 1R were determined in all samples.” for “identification.”
as §2

[4] = rat brain after 10 mg/kg po of 2R or 7R, parent or metabolite 1R as labelled, listed as 1R as metabolite of 2R
[5] = rat brain after 10 mg/kg po of 2R or 7R, parent or metabolite 1R as labelled, listed as 1R as metabolite of 7R
[6] = rat plasma after 10 mg/kg po of 2R or 7R, parent or metabolite 1R as labelled, listed as 1R as metabolite of 7R

N[C@]1(c2cccc(F)c2)CCCCC1=O [Compound 3S]
half-life ([1]; mouse brain, 1 mg/kg iv, read-out: t1/2 (iv)): 26.4 min | Cmax ([1]; mouse brain, 1 mg/kg po): 112 ng/g | half-life ([1]; mouse brain, 1 mg/kg po, read-out: t1/2 (po)): 40.8 min | half-life ([1]; mouse plasma, 1 mg/kg iv, read-out: t1/2 (iv)): 101 min | AUC(0-inf) ([1]; mouse plasma, 1 mg/kg iv, values represent AUC0-last, read-out: AUC0-inf (iv) (converted)): 608 ng·h/mL | Cmax ([1]; mouse plasma, 1 mg/kg po): 640 ng/mL | half-life ([1]; mouse plasma, 1 mg/kg po, read-out: t1/2 (po)): 29.4 min | AUC(0-inf) ([1]; mouse plasma, 1 mg/kg po, values represent AUC0-last, read-out: AUC0-inf (po) (converted)): 542 ng·h/mL | AUC0-inf (iv) ([1]; mouse brain, 1 mg/kg iv, values represent AUC0-last): 18,797 ng*min/g | AUC0-inf (po) ([1]; mouse brain, 1 mg/kg po, values represent AUC0-last): 7,418 ng*min/g | F ([1]; mouse brain, calculated based on brain exposure (AUC0-last)): 39% | F ([1]; mouse plasma, based on AUC0-last): 89% | half-life at 1 μM [2]: 83.7 min | microsomal CLint at 1 μM [2]: 16.6 µL/min/mg

N[C@@]1(c2ccc(F)cc2)CCCCC1=O [Compound 1R, (R)-2-amino-2-(4-fluorophenyl)cyclohexan-1-one]
concentration at 0.083 h ([3]; male, Sprague Dawley, rat, brain, 10 mg/kg, rat brain, 0.083 h after 10 mg/kg po of 2R or 7R, read-out: Mean brain concentration): 56 ng/g | concentration at 0.25 h ([3]; male, Sprague Dawley, rat, brain, 10 mg/kg, rat brain, 0.25 h after 10 mg/kg po of 2R or 7R, read-out: Mean brain concentration): 1470 ng/g | concentration at 0.5 h ([3]; male, Sprague Dawley, rat, brain, 10 mg/kg, rat brain, 0.5 h after 10 mg/kg po of 2R or 7R, read-out: Mean brain concentration): 3200 ng/g | concentration at 1 h ([3]; male, Sprague Dawley, rat, brain, 10 mg/kg, rat brain, 1 h after 10 mg/kg po of 2R or 7R, read-out: Mean brain concentration): 3500 ng/g | concentration at 2 h ([3]; male, Sprague Dawley, rat, brain, 10 mg/kg, rat brain, 2 h after 10 mg/kg po of 2R or 7R, read-out: Mean brain concentration): 2670 ng/g | concentration at 4 h ([3]; male, Sprague Dawley, rat, brain, 10 mg/kg, rat brain, 4 h after 10 mg/kg po of 2R or 7R, read-out: Mean brain concentration): 1610 ng/g | half-life ([3]; male, Sprague Dawley, rat, brain, po, 10 mg/kg, rat brain after 10 mg/kg po of 2R or 7R, parent or metabolite 1R as labelled, read-out: t1/2 (brain)): 121 min | concentration at 0.083 h ([3]; male, Sprague Dawley, rat, plasma, 10 mg/kg, rat plasma, 0.083 h after 10 mg/kg po of 2R or 7R, read-out: Mean plasma concentration): 31 ng/mL | concentration at 0.25 h ([3]; male, Sprague Dawley, rat, plasma, 10 mg/kg, rat plasma, 0.25 h after 10 mg/kg po of 2R or 7R, read-out: Mean plasma concentration): 889 ng/mL | concentration at 0.5 h ([3]; male, Sprague Dawley, rat, plasma, 10 mg/kg, rat plasma, 0.5 h after 10 mg/kg po of 2R or 7R, read-out: Mean plasma concentration): 1700 ng/mL | concentration at 1 h ([3]; male, Sprague Dawley, rat, plasma, 10 mg/kg, rat plasma, 1 h after 10 mg/kg po of 2R or 7R, read-out: Mean plasma concentration): 2110 ng/mL | concentration at 2 h ([3]; male, Sprague Dawley, rat, plasma, 10 mg/kg, rat plasma, 2 h after 10 mg/kg po of 2R or 7R, read-out: Mean plasma concentration): 1410 ng/mL | concentration at 4 h ([3]; male, Sprague Dawley, rat, plasma, 10 mg/kg, rat plasma, 4 h after 10 mg/kg po of 2R or 7R, read-out: Mean plasma concentration): 690 ng/mL | Cmax ([3]; male, Sprague Dawley, rat, plasma, po, 10 mg/kg, rat plasma after 10 mg/kg po of 2R or 7R, parent or metabolite 1R as labelled): 2110 ng/mL | AUC(0-t) ([3]; male, Sprague Dawley, rat, plasma, po, 10 mg/kg, rat plasma after 10 mg/kg po of 2R or 7R, parent or metabolite 1R as labelled, read-out: AUC0-last (plasma) (converted)): 8630 ng·h/mL | half-life ([3]; male, Sprague Dawley, rat, plasma, po, 10 mg/kg, rat plasma after 10 mg/kg po of 2R or 7R, parent or metabolite 1R as labelled, read-out: t1/2 (plasma)): 182 min | AUC0-last (brain) [3, 4]: 820350 ng·min/g | Cmax (brain) [3, 4]: 3502 ng/g | AUC0-last (brain) [3, 5]: 912802 ng·min/g | Cmax (brain) [3, 5]: 2335 ng/g | t1/2 (brain) [3, 5]: 185 min | Mean brain concentration ([3]; rat brain, 0.083 h after 10 mg/kg po of 2R or 7R, listed as 1R as metabolite of 7R): 59 ng/g | Mean brain concentration ([3]; rat brain, 0.25 h after 10 mg/kg po of 2R or 7R, listed as 1R as metabolite of 7R): 1233 ng/g | Mean brain concentration ([3]; rat brain, 0.5 h after 10 mg/kg po of 2R or 7R, listed as 1R as metabolite of 7R): 1623 ng/g | Mean brain concentration ([3]; rat brain, 1 h after 10 mg/kg po of 2R or 7R, listed as 1R as metabolite of 7R): 2075 ng/g | Mean brain concentration ([3]; rat brain, 2 h after 10 mg/kg po of 2R or 7R, listed as 1R as metabolite of 7R): 2335 ng/g | Mean brain concentration ([3]; rat brain, 4 h after 10 mg/kg po of 2R or 7R, listed as 1R as metabolite of 7R): 1176 ng/g | AUC0-last (plasma) [3, 6]: 503548 ng·min/mL | Cmax (plasma) [3, 6]: 1564 ng/mL | Mean plasma concentration ([3]; rat plasma, 0.083 h after 10 mg/kg po of 2R or 7R, listed as 1R as metabolite of 7R): 16 ng/mL | Mean plasma concentration ([3]; rat plasma, 0.25 h after 10 mg/kg po of 2R or 7R, listed as 1R as metabolite of 7R): 525 ng/mL | Mean plasma concentration ([3]; rat plasma, 0.5 h after 10 mg/kg po of 2R or 7R, listed as 1R as metabolite of 7R): 960 ng/mL | Mean plasma concentration ([3]; rat plasma, 1 h after 10 mg/kg po of 2R or 7R, listed as 1R as metabolite of 7R): 1360 ng/mL | Mean plasma concentration ([3]; rat plasma, 2 h after 10 mg/kg po of 2R or 7R, listed as 1R as metabolite of 7R): 1564 ng/mL | Mean plasma concentration ([3]; rat plasma, 4 h after 10 mg/kg po of 2R or 7R, listed as 1R as metabolite of 7R): 705 ng/mL
